Measured values taken from US6358964B1, “Adenosine, A3 receptor modulators” (priority 2000, dated 2002).

Target: T1, human recombinant A3 adenosine receptors (Homo sapiens, UniProt P0DMS8)
T1 construct: expressed in transfected cells; host or cells: CHO cells
T1 sequence (P0DMS8 1-318): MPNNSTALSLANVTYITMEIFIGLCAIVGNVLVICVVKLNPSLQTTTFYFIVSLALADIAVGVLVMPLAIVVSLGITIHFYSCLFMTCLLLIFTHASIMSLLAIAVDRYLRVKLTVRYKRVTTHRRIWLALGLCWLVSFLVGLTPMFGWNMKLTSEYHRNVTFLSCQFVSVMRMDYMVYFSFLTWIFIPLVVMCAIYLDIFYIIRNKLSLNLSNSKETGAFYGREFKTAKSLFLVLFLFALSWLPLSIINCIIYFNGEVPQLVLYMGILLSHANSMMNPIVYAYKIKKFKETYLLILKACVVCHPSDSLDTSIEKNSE
Experiment: Human cloned A3 adenosine receptor binding assay ([3H]MRE3008-F20 displacement, CHO membranes)
Details: radioligand binding, read-out: binding affinity at human A3 receptors (hA3)
Protocol: Inhibitory binding constant, Ki, values can be calculated from those of IC50 according to the Cheng & Prusoff equation (Cheng and Prusoff, Biochem. Pharmacol. 22:3099-3108 (1973)), Ki=IC50/(1+[C*]/KD*), where [C*] is the concentration of the radioligand and KD* its dissociation constant.
The expression of the human […], A2A and A3 receptors in CHO cells has been previously described (Klotz et al., 1998). The cells were grown adherently and maintained in Dulbecco's modified Eagle's medium with nutrient mixture F12 without nucleosides at 37° C. in 5% CO2/95% air. Cells were split two or three times weekly and then the culture medium was removed for membrane preparations. […]
Binding of [^3H] […] Bound and free radioactivity were separated by filtering the assay mixture through Whatman GF/B glass-fiber filters using a Micro-mate 196 cell harvester (Packard Instrument Company). The filter bound radioactivity was counted on Top Count (efficiency 57%) with Micro-Scint 20. The protein concentration was determined according to a BioRad method (Bradford, M. M., “A rapid and sensitive method for the quantification of microgram quantities of protein utilizing the principle of protein dye-binding,” Anal. Biochem. 72, 248, 1976) with bovine albumin as reference standard.

Row | Ki [nM] | Compound
1 | 0.19 | O=C(Nc1cccc(Cl)c1)Nc1nc2ccc(Cl)cc2c2nc(-c3ccco3)nn12 [Compound 2]
2 | 0.14 | COc1ccc(NC(=O)Nc2nc3ccc(Cl)cc3c3nc(-c4ccco4)nn23)cc1 [Compound 1]
